Data taken from PMC4947679, “Quantitative In Vitro and In Vivo Evaluation of Intestinal and Blood-Brain Barrier Transport Kinetics of the Plant N-Alkylamide Pellitorine” (BioMed Research International, 2016).
Values belong to the compound of their own block, whether it stands above or below them.

What was measured:
[1] = Caco-2 cell permeability assay; type: in vitro ADME, human; conditions: human, Caco-2; positive (high permeability) control, 20 μM
Description: The Caco-2 cell line originated from a human colorectal carcinoma and was maintained in Dulbecco's modified Eagle's medium (DMEM) (95% humidity, 37°C, 5% CO2), supplemented with 10% (V/V) fetal bovine serum, 100 U/mL penicillin and 100 μg/mL streptomycin, 2 mM L-glutamine, and 1% nonessential amino acids (all from Invitrogen/GIBCO, Ghent, Belgium).
The Caco-2 cell intestinal model was used to investigate the gut mucosa permeation of pellitorine. On each Transwell (Corning Costar, New York, USA) membrane insert filter (0.4 μm pore size, 12 mm filter diameter), the cells were seeded at a density of 2.6 · 10^5 cells/cm^2 cells and cultivated in the described supplemented DMEM. Every second day, the medium was changed. During a period of 21–29 days, the cells were grown and differentiated until monolayers were formed. The integrity of the monolayers was checked via the measurement of transepithelial electrical resistance (TEER) of the monolayers with a Millicell-ERS system (Millipore Corp., Bedford, MA, USA) before and after the transport experiments. The experiments were performed in duplicate for each dose solution. Transport experiments were carried out according to Hubatsch et al. in two directions: from the apical-to-basolateral (ab) direction and from the basolateral-to-apical (ba) direction in Hanks' Balanced Salt solution. Two dose solutions of pellitorine (in Anacyclus pyrethrum extract) of 1 μg/mL in 0.5% EtOH (further indicated as DS1) and of 56 μg/mL in 0.5% of a mixture of vitamin E-TPGS (33.3%), EtOH (11.1%), PEG 400 (33.3%), and PG (22.2%) (further indicated as DS2) dissolved in HBSS were tested.
Final apical volumes of 0.4 mL and basolateral volumes of 1.2 mL were used for 12 mm filter supports during the transport experiment. After 15, 30, 60, 90, and 120 min, samples were taken from the receiver compartment (basolateral to apical transport: 100 μL, apical-to-basolateral transport: 300 μL) and immediately replaced by fresh HBSS. […] Pellitorine was quantified using a ultraperformance liquid chromatography-tandem mass spectrometry (UPLC-MS^2) method as described below.
The apparent permeability coefficient (P app in cm/s) of pellitorine in DS2 was calculated using a sink condition equation, while P app of pellitorine in DS1 was calculated using a nonsink equation. From Fick's first law, J = −D × [dC(x)]/dx (J is the flux or transfer rate along the donor-to-receptor side, D is the diffusion coefficient, x is the distance from the donor compartment, and C(x) is the concentration in the barrier at the coordinate x in the barrier), the following differential equation is derived: dM r(t)/dt = P app × A × [C d(t) − C r(t)], in which P app is the apparent permeability coefficient (a product of distribution coefficient with diffusion coefficient divided by the barrier thickness), M r is the amount of substance in the receiver chamber, A is the cross-sectional area of the barrier, C d is the donor concentration, and C r is the receiver concentration. This differential equation can be solved to calculate P app using different initial conditions depending on sink or nonsink conditions. In case of sink conditions, the following equation was obtained from the amount of compound transported per time dM r(t)/dt with the receiver concentration set to zero [18, 20]:(1) Mrt/Cd,0=Papp×A×t+c, where P app is the apparent permeability coefficient (cm/s), A is the surface area of the filter (1.12 cm^2), C d,0 is the initial concentration in the donor chamber (μg/mL), t is the time (s), and c is a constant term which vanishes, since M r is initially zero at t = 0.
The donor concentration at each time point was calculated by taking into account the amount of compound which already permeated through the cell monolayer during that time interval. In this way, the reduction in donor concentration after every sampling was also taken into account.

[2] = Blood-to-brain transport, multiple time regression (MTR) analysis in mice; conditions: mice, injection into jugular vein, MTR
Description: Seven-to-ten-week-old female, Institute for Cancer Research, Caesarean Derived-1 (ICR-CD-1) mice (Harlan Laboratories, Venray, Netherlands) weighing 29–32 g were used for the BBB transport experiments. The experiments were performed according to the Ethical Committee principles of laboratory animal welfare as approved by Ghent University (Faculty of Veterinary Medicine, number EC2014/128).
An in vivo multiple time regression (MTR) analysis was performed in order to determine whether pellitorine could enter the brain. A dose solution of 1.8 mg/mL pure pellitorine dissolved in 6.9% EtOH, 2.5% dimethylacetamide, and 0.5% tween 80 (all w/w) diluted in lactated Ringer's solution containing 1% BSA was prepared. After anesthetizing the mice intraperitoneally with a 40% (w/V) urethane solution (3 g/kg), the jugular internalis vein and carotid artery were isolated and 20 μL of the pellitorine dose solution was injected into the jugular vein. After 1, 3, 5, 10, 12.5, and 15 min after injection (with start and end in duplicate), blood was collected from the carotid artery. Immediately thereafter, the mice were decapitated and the brains were isolated. […] The serum concentrations of pellitorine were plotted against the time (expressed in min). The curve was fitted using a first-order kinetic, two-compartment model: C(t) = C 1 × e ^−α×t + C 2 × e ^−β×t, in which C is the concentration of pellitorine in serum at time t, α and β are hybrid constants, dependent on the rate constants k e (elimination rate constant), k 1,2 (rate constant between central and peripheral tissue compartment), k 2,1 (rate constant between peripheral tissue and central compartment), C 1 is the concentration obtained after extrapolation of the distribution phase α to the y-axis, and C 2 is the concentration obtained after extrapolation of the elimination phase β to the y-axis. The ratio of the pellitorine brain and serum concentration (μL/g) was plotted versus the exposure time (θ), which is a derived time variable of the Gjedde-Patlak plot, to determine the BBB influx kinetics of pellitorine.
The exposure time is computed as θ = ∫0 ^T((C s(t) · dt)/C s(T)) and is defined as the integral of the concentration of pellitorine in serum from start (t = 0 min) to time T, divided by the concentration of pellitorine in serum at time T. The integral of the concentration of pellitorine in serum from zero to time T is the area under the curve until time T.
The brain uptake of pellitorine was fitted using a biphasic model, as elaborated by Wong et al.: (4) CbrainT/CsTK·θ+Vg·1−e^−θ·K1−K/Vg+V0≅K=0Vg·1−e^−θ·K1/Vg+V0 in which C brain(T) is the concentration of pellitorine in the brain at time T (ng/g), C s(T) the concentration of pellitorine in serum at time T (ng/μL), K the net clearance (μL/(g·min)), V g the tissue brain distribution volume (μL/g), K 1 the unidirectional clearance from pellitorine from blood to brain (i.e., the unidirectional brain transfer coefficient, also referred to as influx rate) (μL/(g·min)), and V 0 the vascular brain distribution volume (μL/g).

[3] = set-up: method as in PMID 19399718; conditions: oral gavage in rats; cited from earlier work

Papp A→B at 120 min, 20 μM [1]: 19.1 ×10⁻⁶ cm/s
Compound: CC(C)NCC(O)COc1cccc2ccccc12 (stereo not drawn) [propranolol, reference compound]

Compound: Dermorphin [reference compound]
unidirectional influx rate K 1 [2]: 0.26 µL/g/min

Compound: dodeca-2E,4E,8E,10E/Z-tetraenoic acid isobutylamides
elimination half-life [3]: 1.20 h
